Holding throughout (conditions): Homo sapiens
The test system of assay [1] is MCF7. Nature of the assay: Cytotoxicity (growth inhibition) against breast cancer MCF-7 cell line at 10E-8 mol/L. The format is functional.
The subject of assay [2] is Ishikawa. Nature of the assay: Cytotoxicity (growth inhibition) against endometrial cancer ishikawa cell line at 10E-6 mol/L after 24 hr. It is filed as functional.
The test system of assay [3] is MCF7. Nature of the assay: Cytotoxicity (growth inhibition) against breast cancer MCF-7 cell line at 10E-9 mol/L. It is filed as functional.
The test system of assay [4] is Ishikawa. Nature of the assay: Cytotoxicity (growth inhibition) against endometrial cancer ishikawa cell line at 10E-5 mol/L after 24 hr. The format is functional.
The test system of assay [5] is Ishikawa. Nature of the assay: Cytotoxicity (growth inhibition) against endometrial cancer ishikawa cell line at 10E-7 mol/L after 24 hr. It is filed as functional.
The subject of assay [6] is MDA-MB-231. Nature of the assay: Cytotoxicity (growth inhibition) against breast cancer MDAMB-231 cell line at 10E-8 mol/L. It is filed as functional.
For assay [7], the system named is MDA-MB-231. Nature of the assay: Cytotoxicity (growth inhibition) against breast cancer MDAMB-231 cell line at 10E-6 mol/L. The format is functional.
The subject of assay [8] is Ishikawa. Nature of the assay: Cytotoxicity (growth inhibition) against endometrial cancer ishikawa cell line at 10E-9 mol/L after 24 hr. It is filed as functional.
The test system of assay [9] is MCF7. Nature of the assay: Cytotoxicity (growth inhibition) against breast cancer MCF-7 cell line at 10E-7 mol/L. It is filed as functional.
For assay [10], the system named is MCF7. Nature of the assay: Cytotoxicity (growth inhibition) against breast cancer MCF-7 cell line at 10E-5 mol/L. It is filed as functional.
Assay [11] has as its system MDA-MB-231. Nature of the assay: Inhibition of the necrosis induced by compound in breast cancer MDAMB-231 cell line. It is filed as functional, cell-based.
The subject of assay [12] is MDA-MB-231. Nature of the assay: Cytotoxicity (growth inhibition) against breast cancer MDAMB-231 cell line at 10E-7 mol/L. It is filed as functional.
Assay [13] concerns MDA-MB-231. Nature of the assay: Cytotoxicity (growth inhibition) against breast cancer MDAMB-231 cell line at 10E-9 mol/L. It is filed as functional.
Assay [14] concerns MCF7. Nature of the assay: Inhibition of the necrosis induced by compound in breast cancer MCF-7 cell line. The format is functional, cell-based.
Assay [15] has as its system MCF7. Nature of the assay: Cytotoxicity (growth inhibition) against breast cancer MCF-7 cell line at 10E-6 mol/L. The format is functional.
Assay [16] relates to Ishikawa. Nature of the assay: Inhibition of the necrosis induced by compound in endometrial cancer ishikawa cell line after 24 hr. The format is functional, cell-based.
For assay [17], the system named is MDA-MB-231. Nature of the assay: Cytotoxicity (growth inhibition) against breast cancer MDAMB-231 cell line at 10E-5 mol/L. The format is functional.
The subject of assay [18] is Ishikawa. Nature of the assay: Cytotoxicity (growth inhibition) against endometrial cancer ishikawa cell line at 10E-8 mol/L after 24 hr. The format is functional.

On to `COc1ccc(C(=O)O[C@H]2[C@H](O[C@@H]3[C@@H](OC(C)=O)[C@H](O[C@H]4C[C@H]5[C@@H]6CC=C7C[C@@H](O)CC[C@]7(C)[C@H]6CC[C@]5(C)[C@@]4(O)[C@H](C)C(=O)CCC(C)C)OC[C@@H]3O)OC[C@@H](O)[C@@H]2O)cc1`, for which the inhibition at 0.01 µM with MCF7 [1], in the assay on MDA-MB-231 [6] and with Ishikawa [18] was 100% each time. In addition, the inhibition at 1 µM in the assay with Ishikawa [2], in the assay with MDA-MB-231 [7] and with MCF7 [15] was 100% each time. For the same molecule, the inhibition at 0.001 µM worked out at 87% in the assay on MCF7 [3], 95% with Ishikawa [8] and 100% in the assay on MDA-MB-231 [13]. The inhibition at 10 µM in the assay with Ishikawa [4], with MCF7 [10] and in the assay on MDA-MB-231 [17] was 100% throughout. For the same molecule, the inhibition at 0.1 µM with Ishikawa [5], with MCF7 [9] and in the assay on MDA-MB-231 [12] was 100% throughout. Also, the IC50 with MDA-MB-231 [11] came to 500 nM; in the assay with MCF7 [14] it was 7000 nM; in the assay on Ishikawa [16], 3000 nM.

The values are drawn from ChEMBL document CHEMBL1147449, “Synthesis of analogues of a potent antitumor saponin OSW-1” (Bioorg Med Chem Lett, 2004).
